Tested on: G3BP1 NFT2
Assay type: binding, human
Conditions: library DMS-CoV; bait G3BP1 NFT2; prey N; peptide APRITFGGPSDSTGSN; listed as aa = residue placed at this position; column sums to 1

Sequence | DMS PSSM value, T (position 5) | DMS PSSM value, F (position 6) | DMS PSSM value, I (position 4) | DMS PSSM value, R (position 3) | DMS PSSM value, A (position 1) | DMS PSSM value, D (position 11) | DMS PSSM value, T (position 13) | DMS PSSM value, S (position 10) | DMS PSSM value, P (position 2) | DMS PSSM value, G (position 8)
APRITFGGPSDSTGSN T5W (APRIWFGGPSDSTGSN) | 0 |  |  |  |  |  |  |  |  | 
APRITFGGPSDSTGSN F6A (APRITAGGPSDSTGSN) |  | 0 |  |  |  |  |  |  |  | 
APRITFGGPSDSTGSN I4H (APRHTFGGPSDSTGSN) |  |  | 0 |  |  |  |  |  |  | 
APRITFGGPSDSTGSN R3S (APSITFGGPSDSTGSN) |  |  |  | 0.004779 |  |  |  |  |  | 
APRITFGGPSDSTGSN A1D (DPRITFGGPSDSTGSN) |  |  |  |  | 0.5313 |  |  |  |  | 
APRITFGGPSDSTGSN D11E (APRITFGGPSESTGSN) |  |  |  |  |  | 0.08423 |  |  |  | 
APRITFGGPSDSTGSN F6K (APRITKGGPSDSTGSN) |  | 0 |  |  |  |  |  |  |  | 
APRITFGGPSDSTGSN T13E (APRITFGGPSDSEGSN) |  |  |  |  |  |  | 0.0383 |  |  | 
APRITFGGPSDSTGSN I4N (APRNTFGGPSDSTGSN) |  |  | 0 |  |  |  |  |  |  | 
APRITFGGPSDSTGSN S10F (APRITFGGPFDSTGSN) |  |  |  |  |  |  |  | 0.001618 |  | 
APRITFGGPSDSTGSN P2D (ADRITFGGPSDSTGSN) |  |  |  |  |  |  |  |  | 0.06205 | 
APRITFGGPSDSTGSN G8F (APRITFGFPSDSTGSN) |  |  |  |  |  |  |  |  |  | 0
APRITFGGPSDSTGSN T5G (APRIGFGGPSDSTGSN) | 0 |  |  |  |  |  |  |  |  | 
APRITFGGPSDSTGSN T5K (APRIKFGGPSDSTGSN) | 0 |  |  |  |  |  |  |  |  | 
APRITFGGPSDSTGSN P2L (ALRITFGGPSDSTGSN) |  |  |  |  |  |  |  |  | 0 | 
APRITFGGPSDSTGSN P2Q (AQRITFGGPSDSTGSN) |  |  |  |  |  |  |  |  | 0.0005858 | 
APRITFGGPSDSTGSN A1K (KPRITFGGPSDSTGSN) |  |  |  |  | 0 |  |  |  |  | 
APRITFGGPSDSTGSN A1H (HPRITFGGPSDSTGSN) |  |  |  |  | 0.001405 |  |  |  |  | 
APRITFGGPSDSTGSN T5I (APRIIFGGPSDSTGSN) | 0.002921 |  |  |  |  |  |  |  |  | 
APRITFGGPSDSTGSN F6W (APRITWGGPSDSTGSN) |  | 0 |  |  |  |  |  |  |  | 
APRITFGGPSDSTGSN S10E (APRITFGGPEDSTGSN) |  |  |  |  |  |  |  | 0.06961 |  | 
APRITFGGPSDSTGSN P2E (AERITFGGPSDSTGSN) |  |  |  |  |  |  |  |  | 0.7321 | 
APRITFGGPSDSTGSN T13F (APRITFGGPSDSFGSN) |  |  |  |  |  |  | 0.002251 |  |  | 
APRITFGGPSDSTGSN P2V (AVRITFGGPSDSTGSN) |  |  |  |  |  |  |  |  | 0 | 
APRITFGGPSDSTGSN D11Y (APRITFGGPSYSTGSN) |  |  |  |  |  | 0.02603 |  |  |  | 
APRITFGGPSDSTGSN I4A (APRATFGGPSDSTGSN) |  |  | 0 |  |  |  |  |  |  | 
APRITFGGPSDSTGSN S10Q (APRITFGGPQDSTGSN) |  |  |  |  |  |  |  | 0.008177 |  | 
APRITFGGPSDSTGSN T13G (APRITFGGPSDSGGSN) |  |  |  |  |  |  | 0.00113 |  |  | 

Same assay, conditions: library DMS-CoV; bait G3BP1 NFT2; prey N; peptide APRITFGGPSDSTGSN; listed as aa = residue placed at this position; column sums to 1

Sequence | DMS PSSM value, S (position 15) | DMS PSSM value, G (position 7) | DMS PSSM value, G (position 14) | DMS PSSM value, P (position 9) | DMS PSSM value, S (position 12)
APRITFGGPSDSTGSN S15W (APRITFGGPSDSTGWN) | 0.00112 |  |  |  | 
APRITFGGPSDSTGSN S15A (APRITFGGPSDSTGAN) | 0.001992 |  |  |  | 
APRITFGGPSDSTGSN G7D (APRITFDGPSDSTGSN) |  | 0 |  |  | 
APRITFGGPSDSTGSN G14R (APRITFGGPSDSTRSN) |  |  | 0.002725 |  | 
APRITFGGPSDSTGSN G7L (APRITFLGPSDSTGSN) |  | 0 |  |  | 
APRITFGGPSDSTGSN S15I (APRITFGGPSDSTGIN) | 0.3514 |  |  |  | 
APRITFGGPSDSTGSN P9W (APRITFGGWSDSTGSN) |  |  |  | 0 | 
APRITFGGPSDSTGSN G7M (APRITFMGPSDSTGSN) |  | 0 |  |  | 
APRITFGGPSDSTGSN P9G (APRITFGGGSDSTGSN) |  |  |  | 0.003052 | 
APRITFGGPSDSTGSN G7P (APRITFPGPSDSTGSN) |  | 0 |  |  | 
APRITFGGPSDSTGSN G14Y (APRITFGGPSDSTYSN) |  |  | 0.003136 |  | 
APRITFGGPSDSTGSN G14S (APRITFGGPSDSTSSN) |  |  | 0.004295 |  | 
APRITFGGPSDSTGSN G7H (APRITFHGPSDSTGSN) |  | 0 |  |  | 
APRITFGGPSDSTGSN P9D (APRITFGGDSDSTGSN) |  |  |  | 0 | 
APRITFGGPSDSTGSN S15E (APRITFGGPSDSTGEN) | 0.0004817 |  |  |  | 
APRITFGGPSDSTGSN S12Y (APRITFGGPSDYTGSN) |  |  |  |  | 0.2998
APRITFGGPSDSTGSN G7E (APRITFEGPSDSTGSN) |  | 0.08457 |  |  | 
APRITFGGPSDSTGSN S12D (APRITFGGPSDDTGSN) |  |  |  |  | 0

Same assay, conditions: library DMS-CoV; bait G3BP1 NFT2; prey N; peptide RNAPRITFGGPSDSTG; listed as aa = residue placed at this position; column sums to 1

Sequence | DMS PSSM value, G (position 9) | DMS PSSM value, S (position 12) | DMS PSSM value, F (position 8) | DMS PSSM value, G (position 10) | DMS PSSM value, P (position 4)
RNAPRITFGGPSDSTG G9V (RNAPRITFVGPSDSTG) | 0 |  |  |  | 
RNAPRITFGGPSDSTG S12V (RNAPRITFGGPVDSTG) |  | 0 |  |  | 
RNAPRITFGGPSDSTG F8S (RNAPRITSGGPSDSTG) |  |  | 0 |  | 
RNAPRITFGGPSDSTG G10E (RNAPRITFGEPSDSTG) |  |  |  | 0 | 
RNAPRITFGGPSDSTG P4G (RNAGRITFGGPSDSTG) |  |  |  |  | 0

Source: publication PMC12102759 (Protein Science : A Publication of the Protein Society, 2025)
